From publication PMC3130785, “Small Compound 6-O-Angeloylplenolin Induces Mitotic Arrest and Exhibits Therapeutic Potentials in Multiple Myeloma” (PLoS ONE, 2011)

Columns and labels:
Staphylococcus aureus = tested on: Staphylococcus aureus; parameters: method as in PMID 9461679, PMID 8657743, PMID 12521264; conditions: cited from earlier work
Bacillus subtilis = tested on: Bacillus subtilis; parameters: method as in PMID 9461679, PMID 8657743, PMID 12521264; conditions: cited from earlier work
pERK1/2 = test: Western blotting, 6-OAP/BOR; assay type: cell-based, human; conditions: MM.1S; BOR 3 nM for 12 to 24 h with 6-OAP 5 µM
Method: Cell pellets were lysed in RIPA buffer containing 50 mM Tris pH 8.0, 150 mM NaCl, 0.1% SDS, 0.5% deoxycholate, 1% NP-40, 1 mM DTT, 1 mM NaF, 1 mM sodium vanadate, and protease inhibitors cocktail (Sigma). For immunoprecipitations, cells were lysed on ice for 15 minutes in RIPA buffer. Lysates were centrifuged. The supernatant was incubated with indicated antibodies overnight, after which protein A/G Plus beads (Santa Cruz Biotechnology) were added and incubated for 3 h. The beads were washed 4 times in RIPA buffer. Then the beads were resuspended in 1× sample buffer and boiled for 3 min. Protein extracts were quantitated and loaded on 8% to 12% sodium dodecyl sulfate polyacrylamide gel, electrophoresed, and transferred to a nitrocellulose membrane (Whatman). The membrane was incubated with primary antibody, washed, and incubated with horseradish peroxidase (HRP)–conjugated secondary antibody (Pierce). Detection was performed by using a chemiluminescent western detection kit (Cell Signaling). […]

MM.1R cells = test: MTT assay, Dex with or without 6-OAP; assay type: cell-based, human; conditions: Dex 1 to 2 µM alone, 48 h, MTT
Method: U266, RPMI 8226 cells (1×10^4), primary CD138+ cells, PBMCs (5×10^4), and BMSCs (1×10^4) were cultured in 96-well dishes and incubated without or with 6-OAP at indicated concentration for 48 h. MM.1S and MM.1R cells (2×10^4) were seeded into 96-well dishes and pre-cultured for 24 h, then treated with 6-OAP for 48 h. Cell proliferation was determined by MTT assay. Cell viability was estimated by trypan blue dye exclusion.
Figure 4 6-OAP enhances cytotoxicity of Dox, Dex and BOR to MM cells. (A through C) MM.1S cells were treated for 48 h with Dox (A), Dex (B) or BOR (C) in the presence or absence of 6-OAP at 5 µM. MTT assay was used to test the proliferation of MM.1S cells. (D) MM.1R cells were treated for 48 h with Dex in the presence or absence of 6-OAP at 7.5 µM. MTT assay was used to test the proliferation of MM.1R cells. *p<.001,** p<.05. (E) MM.1S cells were cultured with control media (con), 6-OAP (O, 5 µM), BOR (B, 3 nM), or 6-OAP (5 µM) plus BOR (3 nM) (OB) for indicated time points. Cells were then lysed and subjected to Western blotting using indicated antibodies. CF, cleavage fragment.

Compound | antibacterial activity (Staphylococcus aureus) | antibacterial activity (Bacillus subtilis) | 6-OAP-induced pERK1/2 upregulation (pERK1/2) | inhibition of cell proliferation (MM.1R cells)
CC(C)C(=O)OC1C2C(CC(C)C3C=CC(=O)C31C)OC(=O)C2C (stereo not drawn) [6-O-isobutyroylplenolin] | exhibit antibacterial activity | exhibit antibacterial activity |  | 
C=C(C)C(=O)OC1C2C(CC(C)C3C=CC(=O)C31C)OC(=O)C2C (stereo not drawn) [6-O-methylacrylylplenolin] | exhibit antibacterial activity | exhibit antibacterial activity |  | 
CC(C)C[C@H](NC(=O)[C@H](Cc1ccccc1)NC(=O)c1cnccn1)B(O)O [BOR, bortezomib, reference compound] |  |  | dramatically inhibited 6-OAP-induced pERK1/2 upregulation | 
C[C@@H]1C[C@H]2[C@@H]3CCC4=CC(=O)C=C[C@]4(C)[C@@]3(F)[C@@H](O)C[C@]2(C)[C@@]1(O)C(=O)CO [Dex, Dexamethasone, reference compound] |  |  |  | slight inhibition rate
